From patent US5256686A, “Phenylalkan(en)oic acid” (Ono Pharmaceutical Co., Ltd., priority 1989, dated 1993)

How the values were obtained:
[1] = target: T1, human PMNL LTB4 receptor (Homo sapiens, UniProt Q15722); assay: Binding affinity of 3H-LTB4 antagonist to human PMNL LTB4 receptor (inhibition of specific 3H-LTB4 binding); conditions: 1 nM 3H-LTB4, human PMNLs, 4° C., 20 min
T1 construct: endogenous in cells; host or cells: human polymorphonuclear leukocytes (PMNL), intact cells
Procedure: Human PMNLS (1×10^7 cells) were incubated with 1 nM ^3 H-LTB4 in Hanks balanced salt solution (1 ml) at 4° C. for 20 min. in the presence or absence of increasing concentrations of unlabeled LTB4 or various compounds. Free ^3 H-LTB4 was separated from PMNLs-bound ligands by vacuum filteration through Whatman GF/B or C glass fiber filters. The filters were then washed rapidly 4 times with 2.5 ml of the ice-cold phosphate buffered saline. The radioactivity retained in the filter was determined by liquid scintillation counting. Specific binding was defined as the difference between total binding and binding in the presence of 3 μM LTB4 (nonspecific binding). The inhibitory effect of specific ^3 H-LTB4 binding was calculated from the following equation.
The percentage of inhibition (%)=100-(B1 /B0 ×100)
B1 : specific ^3 H-LTB4 binding in presence of antagonist
B0 : specific ^3 H-LTB4 binding in absence of antagonist

[2] = test system: Human PMNLs; assay: Inhibition of human PMNLs aggregation (LTB4-induced); type: cell-based; conditions: PMNL, LTB4 10^-8 M solution, 3 min preincubation at 37° C., pH 7.4
Procedure: ii) Inhibition of Human PMNLs aggregation
The purified human PMNLs were suspended in Hank's-0.5% BSA medium (pH 7.4) at 1×10^7 cells/ml. The PMNLs suspentions (200 μl) were preincubated with varying concentrations of tasted compounds for 3 min at 37° C. prior to the addition of 10^-8 M solution ([…]) of LTB4 in Hank's solution. PMNLs aggregation in vitro was performed with a multichannel platelet aggregometer. Aggregation was detected as change in light transmission with an aggregometer.

[3] = Acute toxicity (LD50) in mouse; conditions: in vivo
Source text: It was confirmed that the toxicity of the compounds, of the present invention were very low. […] Accordingly, it was confirmed that the compounds of the present invention were useful for pharmaceutical agent.

T1 sequence (Q15722 whole entry): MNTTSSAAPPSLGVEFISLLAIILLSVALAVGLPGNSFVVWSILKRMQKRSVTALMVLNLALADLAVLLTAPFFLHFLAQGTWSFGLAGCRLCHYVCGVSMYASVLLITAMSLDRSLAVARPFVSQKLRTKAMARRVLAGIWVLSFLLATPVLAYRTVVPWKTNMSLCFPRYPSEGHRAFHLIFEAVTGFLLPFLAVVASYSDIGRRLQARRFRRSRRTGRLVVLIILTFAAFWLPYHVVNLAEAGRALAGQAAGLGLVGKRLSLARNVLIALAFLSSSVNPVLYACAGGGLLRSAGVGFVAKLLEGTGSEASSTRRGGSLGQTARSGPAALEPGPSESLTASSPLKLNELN

COc1ccc(/C=C/CCCCOc2ccc(NC(=O)CCCC(=O)N(C)C)cc2CCC(=O)O)cc1 [1 (a), 3-[1-[6-(4-methoxyphenyl)hex-5E-enyl]oxy-4-(4-dimethylaminocarbonylbutanamido)benzen-2-yl]propionic acid]
IC50 [1]: 0.045 µM | IC50 [2]: 3.6 µM

COc1ccc(/C=C/CCCCOc2ccc(NC(=O)CCCC(=O)Nc3nccs3)cc2CCC(=O)O)cc1 [1 (o), 3-[1-[6-(4-methoxyphenyl)hex-5E-enyl]oxy-4-[4-(2-thiazolyl)aminocarbonylbutanamido]benzen-2-yl]propionic acid]
IC50 [1]: 0.02 µM | IC50 [2]: 3 µM

COc1ccc(/C=C/CCCCOc2ccc(NC(=O)c3cccc(C(=O)O)c3)cc2CCC(=O)O)cc1 [2 (b), 3-[1-[6-(4-methoxyphenyl)hex-5E-enyl]oxy-4-(3-carboxylbenzamido)benzen-2-yl]propionic acid]
IC50 [1]: 0.02 µM | IC50 [2]: 7.4 µM

COc1ccc(/C=C/CCCCOc2cccc(OCCCCN3CCCC3=O)c2CCC(=O)O)cc1 [30 (a), 3-[1-[6-(4-methoxyphenyl)hex-5E-enyl]oxy-3-[4-(2-pyrrolidon-1-yl)-n-butoxy]benzen-2-yl]propionic acid]
IC50 [1]: 0.07 µM | IC50 [2]: 1.1 µM

COc1ccc(/C=C/CCCCOc2cccc(OCCCCC(=O)O)c2CCC(=O)O)cc1 [31 (a), 3-[1-[6-(4-methoxyphenyl)hex-5E-enyl]oxy-3-(4-carboxylbutyl)oxybenzen-2-yl]propionic acid]
IC50 [2]: 1.9 µM | LD50 ([3]; intravenous administration): 260 mg/kg | LD50 ([3]; oral administration): 2200 mg/kg

COc1ccc(CCCCCCOc2ccc(NS(=O)(=O)c3ccc(C)cc3)cc2CCC(=O)O)cc1 [Example 6, 3-[1-[6-(4-methoxyphenyl)hexyl]oxy-4-(4-methylphenyl)sulfonylaminobenzen-2-yl]propionic acid]
IC50 [1]: 0.08 µM

COc1ccc(/C=C/CCCCOc2ccc(N(C(C)=O)S(C)(=O)=O)cc2CCC(=O)O)cc1 [Example 9, 3-[1-[6-(4-methoxyphenyl)hex-5E-enyl]oxy-4-(N-acetyl-N-mesyl)aminobenzen-2-yl]propionic acid]
IC50 [1]: 0.01 µM

COc1ccc(/C=C/CCCCOc2ccc(N(S(C)(=O)=O)S(C)(=O)=O)cc2CCC(=O)O)cc1 [Example 10, 3-[1-[6-(4-methoxyphenyl)hex-5E-enyl]oxy-4-dimesylaminobenzen-2-yl]propionic acid]
IC50 [1]: 0.013 µM

COc1ccc(/C=C/CCCCOc2ccc(N3C(=O)c4ccccc4C3=O)cc2CCC(=O)O)cc1 [Example 11, 3-[1-[6-(4-methoxyphenyl)hex-5E-enyl]oxy-4-phthalimidobenzen-2-yl]propionicacid]
IC50 [1]: 0.045 µM

COc1ccc(/C=C/CCCCOc2ccc(N3C(=O)CCCS3(=O)=O)cc2CCC(=O)O)cc1 [Example 12, 3-[1-[6-(4-methoxyphenyl)hex-5E-enyl]oxy-4-(perhydro-1,2-thiazin-1,1,3-trione-2-yl]benzen-2-yl]propionic acid]
IC50 [1]: 0.007 µM

CCCCCCCCC(O)/C=C/CCCCOc1ccc(N2C(=O)CCCS2(=O)=O)cc1CCC(=O)O (centres unmarked) [Example 13, 3-[1-(5E-7-hydroxy-n-pentadecenyl)oxy-4-(perhydro-1,2-thiazin-1,1,3-trione-2-yl)benzen-2-yl]propionic acid]
IC50 [1]: 0.045 µM

COc1ccc(/C=C/CCCCOc2ccc(OCCCCC(=O)O)cc2CCC(=O)O)cc1 [Example 14, 3-[1-[6-(4-methoxyphenyl)hex-5E-enyl]oxy-4-(4-carboxylbutoxy)benzen-2-yl]propionic acid]
IC50 [1]: 0.07 µM

COc1ccc(/C=C/CCCCOc2ccc(OCCCCC(=O)N(C)C)cc2CCC(=O)O)cc1 [Example 16, 3-[1-[6-(4-methoxyphenyl)hex-5E-enyl]oxy-4-(4-dimethylaminocarbonyl-n-butyl)oxybenzen-2-yl]propionic acid]
IC50 [1]: 0.09 µM | IC50 [2]: 7 µM

COc1ccc(/C=C/CCCCOc2ccc(CCCCC(=O)N(C)C)cc2CCC(=O)O)cc1 [Example 18, 3-[1-[6-(4-methoxyphenyl)hex-5E-enyl]oxy-4-(4-dimethylaminocarbonylbutyl)benzen-2-yl]propionic acid]
IC50 [1]: 0.025 µM

COc1ccc(/C=C/CCCCOc2ccc(C(=O)CCCC(=O)N(C)C)cc2CCC(=O)O)cc1 [Example 19, 3-[1-[6-(4-methoxyphenyl)hex-5E-enyl]oxy-4-(1-oxo-4-dimethylaminocarbonylbutyl)benzen-2-yl]propionic acid]
IC50 [1]: 0.03 µM

COc1ccc(/C=C/CCCCOc2ccc(C(O)CCCC(=O)N(C)C)cc2CCC(=O)O)cc1 (centres unmarked) [Example 20, 3-[1-[6-(4-methoxyphenyl)hex-5E-enyl]oxy-4-(1-hydroxy-4-dimethylaminocarbonylbutyl)benzen-2-yl]propionic acid]
IC50 [1]: 0.0036 µM | IC50 [2]: 2 µM

CCCCCCCCC(O)/C=C/CCCCOc1cccc(OCCCCC(=O)N(C)C)c1CCC(=O)O (centres unmarked) [Example 29, 3-[1-(5E-7-hydroxypentadecenyl)oxy-3-(4-dimethylaminocarbonylbutyl)oxybenzen-2-yl]propionic acid]
IC50 [1]: 0.018 µM

COc1ccc(/C=C/CCCCOc2cccc(OCCCCC(=O)N(C)C)c2CCC(=O)O)cc1 [Example 30, 3-[1-[6-(4-methoxyphenyl)hex-5E-enyl]oxy-3-(4-dimethylaminocarbonylbutyl)oxybenzen-2-yl]propionic acid]
IC50 [1]: 0.016 µM | IC50 [2]: 0.84 µM | LD50 ([3]; intravenous administration): 175 mg/kg | LD50 ([3]; oral administration): 3900 mg/kg

COc1ccc(/C=C/CCCCOc2cccc(OCCCC(=O)O)c2CCC(=O)O)cc1 [Example 31, 3-[1-[6-(4-methoxyphenyl)hex-5E-enyl]oxy-3-(3-carboxylpropyl)oxybenzen-2-yl]propionic acid]
IC50 [1]: 0.04 µM | IC50 [2]: 6 µM

COc1ccc(/C=C/CCCCOc2cccc(NC(=O)CCCC(=O)N(C)C)c2CCC(=O)O)cc1 [Example 32, 3-[1-[6-(4-methoxyphenyl)hex-5E-enyl]oxy-3-(4-dimethylaminocarbonylbutanamido)benzen-2-yl]propionic acid]
IC50 [1]: 0.05 µM | IC50 [2]: 5.4 µM

COc1ccc(/C=C/CCCCOc2cccc(CCCCCC(=O)O)c2CCC(=O)O)cc1 [Example 33, 3-[1-[6-(4-methoxyphenyl)hex-5E-enyl]oxy-3-(5-carboxylpentyl)benzen-2-yl]propionic acid]
IC50 [1]: 0.015 µM

COc1ccc(/C=C/CCCCOc2cccc(CCCCCC(=O)N(C)C)c2CCC(=O)O)cc1 [Example 34, 3-[1-[6-(4-methoxyphenyl)hex-5E-enyl]oxy-3-(5-dimethylaminocarbonylpentyl)benzen-2-yl]propionic acid]
IC50 [1]: 0.02 µM | IC50 [2]: 0.81 µM

COc1ccc(/C=C/CCCCOc2cccc(N(S(C)(=O)=O)S(C)(=O)=O)c2CCC(=O)O)cc1 [Example 35, 3-[1-[6-(4-methoxyphenyl)hex-5E-enyl]oxy-3-dimesylaminobenzen-2-yl]propionic acid]
IC50 [1]: 0.2 µM

COc1ccc(/C=C/CCCCOc2cccc(N3C(=O)CCCS3(=O)=O)c2CCC(=O)O)cc1 [Example 36, 3-[1-[6-(4-methoxyphenyl)hex-5E-enyl]oxy-3-(perhydro-1,2-thiazin-1,1,3-trione-2-yl)benzen-2-yl]propionic acid]
IC50 [1]: 0.15 µM

COc1ccc(/C=C/CCCCOc2cccc(C(=O)CCCCC(=O)O)c2CCC(=O)O)cc1 [Example 37, 3-[1-[6-(4-methoxyphenyl)hex-5E-enyl]oxy-3-(1-oxo-5-carboxylpentyl)benzen-2-yl]propionic acid]
IC50 [1]: 0.006 µM | IC50 [2]: 1.7 µM

COc1ccc(/C=C/CCCCOc2cccc(C(O)CCCCC(=O)O)c2CCC(=O)O)cc1 (centres unmarked) [Example 38, 3-[1-[6-(4-methoxyphenyl)hex-5E-enyl]oxy-3-(1-hydroxy-5-carboxylpentyl)benzen-2-yl]propionic acid]
IC50 [1]: 0.12 µM | IC50 [2]: 4.9 µM

COc1ccc(/C=C/CCCCOc2cccc(C(=O)CCCCC(=O)N(C)C)c2CCC(=O)O)cc1 [Example 39, 3-[1-[6-(4-methoxyphenyl)hex-5E-enyl]oxy-3-(1-oxo-5-dimethylaminocarbonylpentyl)benzen-2-yl]propionic acid]
IC50 [1]: 0.023 µM

COc1ccc(/C=C/CCCCOc2cccc(C(O)CCCCC(=O)N(C)C)c2CCC(=O)O)cc1 (centres unmarked) [Example 40, 3-[1-[6-(4-methoxyphenyl)hex-5E-enyl]oxy-3-(1-hydroxy-5-dimethylaminocarbonylpentyl)benzen-2-yl]propionic acid]
IC50 [1]: 0.17 µM
